Assay results published in patent publication US12600732B2, “Bifunctional compounds for degrading BTK via ubiquitin proteosome pathway” (NURIX THERAPEUTICS, INC., priority 2019, dated 2026).
pEC50: −log10 of the molar value. “And” between values parts separate entries of the source, which are not always exact repeats. Identical values can stand only once. Like-named read-outs stand apart in the source and are kept apart here.

Tests used:
primary human T cells [1] = assay: T cell activation assay, IL-2 secretion (ELISA); assay type: cell-based
Description: (§1) This example evaluates whether CTMs with IMiD activity affect T cell activation. […] These assays were performed to assess whether BTK CTMs with and without IMiD activity affected activation of primary human T cells after stimulation of the T cell receptor with anti-CD3/ati-CD28 stimulation. T cell activation was measured by IL-2 secretion (ELISA assay) and upregulation of activation markers CD25 and CD69 on the surface of T cells (flow cytometry). Data are presented as the fold-change of response relative to baseline (stimulation with anti-CD3/anti-CD28 stimulation in the absence of compound).

primary human T cells [2] = assay: T cell activation assay, CD25 and CD69 staining (flow cytometry); assay type: cell-based; details: fold-change of response relative to baseline
Description: as §1

BTK [3] = target: T1, BTK (Mus musculus, UniProt P35991); assay: In vivo degradation of BTK in mouse PD experiments with oral dosing
T1 construct: from tissue; host or cells: mouse blood B cells / splenocytes (CD-1 or BALB/c)
How it was run: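 BTK in blood or splenocytes read by flow cytometry (or HTRF), degradation taken as B-cell minus T-cell BTK MFI versus vehicle. Mice (CD-1 or BALB/c) received compound orally, initially 90 mg/kg for 6 h, then lower doses and longer time points.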

TMD8 tumor cells = assay: TMD8 xenograft efficacy study (wild-type BTK); assay type: in vivo, mouse; details: TMD8 WT, QD
Description: […] Tumor growth inhibition (% TGI) were calculated on the final day of measurement using the equation [1−(T−T0/C−T0)]×100, where T and C represent the mean size of tumors in the treated (T) and control (C) groups, and T0 refers to the tumor size at randomization.
(§2) This example examines the activity of various BTK CTMs in relevant disease models, including the WT and C481S TMD8 model, which models B cell malignancies with/without inhibitor-driven BTK mutations at C481.

[4] = PK data for BTK CTMs (in vivo plasma concentrations); details: for Vd: read-out: Volume of Distribution
Excerpt: The present example evaluates in vivo plasma concentrations of BTK CTMs to develop PK-PD-efficacy relationship and predict human exposure.

TMD8 cells = assay: Cell viability assay (CellTiter-Glo), TMD8 cells; details: for pEC50: Homo sapiens, TMD8, 72 h; for EMAX (% viable cells): TMD8 cells, treatment time 72 h
Description: Cell viability was determined using CellTiter-Glo 2.0 Luminescent Cell Viability Assay (Promega, G9242), which quantitates the amount of ATP present as a proxy for the number of viable cells in culture. Cells were plated with densities between 2000-4000 cells per well in 96-well plates. […] CellTiter-Glo reagent was added to cells at a dilution of 1:20, and the plate was incubated ten minutes at room temperature prior to reading the luminescence signal using an EnVision plate reader. Controls included cells treated with DMSO and wells that contained no cells, only media. Background luminescence signal was determined by control wells containing no cells, only media, and was then subtracted from all sample wells. Luminescence values were then normalized to DMSO-treated wells and reported at proportion viable cells.
Here, the ability of CTMs to affect viability in BTK-dependent cell lines was assessed.

TMD8 C481S cells = assay: Cell viability assay (CellTiter-Glo), TMD8 C481S cells; details: for pEC50: Homo sapiens, TMD8, 72 h; for EMAX (% viable cells): TMD8 C481S cells, treatment time 72 h
BTK [5] = target: BTK (Homo sapiens, UniProt Q06187); assay: BTK remaining in TMD8 WT mouse xenograft study; assay type: in vivo; design: from tissue; host or cells: TMD8 xenograft in CB.17 SCID mice; details: QD
Excerpt: Efficacy in Mouse Xenograft Models
as §2

BTK C481S = BTK C481S (Homo sapiens, UniProt Q06187, C481S); assay: BTK degradation (Total BTK HTRF) in TMD8 cells expressing BTK-C481S; assay type: cell-based; design: endogenous in cells; host or cells: TMD8 BTK-C481S (clone2C3), Cas9 RNP knock-in; details: TMD8 BTK-C481S (clone2C3) cells, treatment time 4 h
Description: BTK levels were determined using Cisbio Total-BTK HTRF (Homologous Time-Resolved Fluorescence) kit (63ADK064PEG) according to the manufacturer's protocol. Briefly, cells were incubated in 1× supplied lysis buffer for 30 minutes. In an opaque white low volume 96-well plate (Cisbio, 66PL96005), cell lysate was combined with two different specific BTK antibodies, one conjugated with Eu^3+-Cryptate FRET donor and one conjugated with d2 FRET acceptor. Assay controls include wells containing cell lysate with only the Eu^3+-Cryptate FRET donor antibody and wells containing both HTRF antibodies and lysis buffer without cells or control lysate provided by Cisbio. HTRF ratio was calculated as (acceptor signal at 665 nm/donor signal at 620 nm)×10^4. Background HTRF levels were determined from the control well containing the donor, but no acceptor, antibody. Background HTRF levels were subtracted from all samples. Readouts were reported as HTRF levels relative to HTRF levels of DMSO-treated cells. Four-parameter non-linear regressions were performed in GraphPad Prism 7.02 to obtain DC50 values.
BTK Degradation (Total BTK HTRF) at Four Hours in TMD8 Cells Expressing BTK-C481S
This example evaluates the potency of CTM in degrading […]. The BTK binding moieties utilized in CTMs bind to the BTK active site. This example evaluates whether the active site mutation C481S affects CTM-induced degradation of BTK.

Mino cells = assay: Cell viability assay (CellTiter-Glo), Mino cells; assay type: cell-based; details: Mino cells, treatment time 72 h
Excerpt: (§3) This example evaluates effects of CTM-mediated degradation on cell viability. […] Mino and Rec-1 are models of Mantle Cell Lymphoma, which is sensitive to IMiDs.

Rec-1 cells = assay: Cell viability assay (CellTiter-Glo), Rec-1 cells; assay type: cell-based
Excerpt: as §3

[6] = tested on: B cell receptor (BCR) signaling; assay: B cell activation assay (flow cytometry), mouse B cells; assay type: cell-based; details: treatment 4 h, IgM stimulation 18 h
Description: Compound was present throughout the stimulation. Cells were stained with Live/Dead dye (Fisher L34976) and then fluorophore-conjugated antibodies against CD20 (Biolegend 302330), CD3 (BD Pharmingen 557705), CD86 (Biolegend 305416) and CD69 (Biolegend 310906). Stained cells were fixed in PFA and run on an Attune N×T Acoustic Focusing Flow Cytometer (Thermo-Fisher A29004), and data was analyzed using FlowJo (v10.5.3) and GraphPad Prism (v7.00) software. Single live lymphocytes were gated for B cells (CD20+CD3−) and T cells (CD3+CD20−), and the geometric mean fluorescence intensity (MFI) of CD86 and CD69 was calculated for each population. The MFI of the unstimulated sample was used to quantify baseline activation.
This example evaluates whether CTM treatment affects B cell receptor (BCR) signaling. BTK is activated downstream of the B cell receptor and leads to upregulation of activation markers CD86 and CD69 on the surface of B cells.

[7] = 1.4 nM, fold-change of response relative to baseline
[8] = 37 nM, fold-change of response relative to baseline
[9] = 333 nM, fold-change of response relative to baseline (stimulation without compound)
[10] = oral dose 3 mg/kg, 6 h, blood, flow cytometry
[11] = oral dose 3 mg/kg, 24 h, blood, flow cytometry
[12] = PO, 30 mg/kg, 21 days of dosing
[13] = Rat Sprague-Dawley, 10 mg/kg PO
[14] = IP, 10 mg/kg, 14 days of dosing
[15] = IP, 30 mg/kg, 14 days of dosing
[16] = IP, 30 mg/kg, 21 days of dosing

SMILES	IL-2 Secretion Anti-CD3/Anti-CD28 Stimulation (primary human T cells [1]; [7])	IL-2 Secretion Anti-CD3/Anti-CD28 Stimulation (primary human T cells [1]; [8])	IL-2 Secretion Anti-CD3/Anti-CD28 Stimulation (primary human T cells [1]; [9])	CD25 Staining Anti-CD3/Anti-CD28 Stimulation (primary human T cells [2]; 1.4 nM)	CD69 Staining Anti-CD3/Anti-CD28 Stimulation (primary human T cells [2]; 1.4 nM)	CD25 Staining Anti-CD3/Anti-CD28 Stimulation (primary human T cells [2]; 37 nM)	CD69 Staining Anti-CD3/Anti-CD28 Stimulation (primary human T cells [2]; 37 nM)	CD25 Staining Anti-CD3/Anti-CD28 Stimulation (primary human T cells [2]; 333 nM)	CD69 Staining Anti-CD3/Anti-CD28 Stimulation (primary human T cells [2]; 333 nM)	% BTK Remaining (BTK [3]; [11]) [%]	Tumor Growth Inhibition (relative to vehicle) (TMD8 tumor cells; [12]) [%]	AUC ([4]; Mouse Balb/c, 1 mg/kg IV) [µM·h]	clearance ([4]; Mouse Balb/c, 1 mg/kg IV) [mL/min/kg]	Vd ([4]; Mouse Balb/c, 1 mg/kg IV) [L/kg]	AUC ([4]; Mouse Balb/c, 30 mg/kg PO) [µM·h]	bioavailability ([4]; Mouse Balb/c, 30 mg/kg PO) [%]	pEC50 (TMD8 cells)	EMAX (% viable cells) (TMD8 cells) [%]	pEC50 (TMD8 C481S cells)	EMAX (% viable cells) (TMD8 C481S cells) [%]	also measured
CN1CCN([C@@H]2CCCN(c3cnc(C(N)=O)c(Nc4ccc(C5CCN(C6CN(c7ccc8c(c7)C(=O)N(C7CCC(=O)NC7=O)C8=O)C6)CC5)cc4)n3)C2)C1=O (some centres unmarked) [Compound 53]	1.22	2.08	2.53	1.09	1.06	1.14	1.07	0.84	0.83	56	27	2.75	7.5	0.88	96	113	8.65	16	7.79	24	% BTK Remaining (BTK [3]; [10]): 35%; AUC ([4]; Rat Sprague-Dawley, 1 mg/kg IV): 0.31 µM·h; clearance ([4]; Rat Sprague-Dawley, 1 mg/kg IV): 75 mL/min/kg; Vd ([4]; Rat Sprague-Dawley, 1 mg/kg IV): 5.9 L/kg; AUC [4, 13]: 2.3 µM·h; bioavailability [4, 13]: 97%; BTK Remaining (% relative to vehicle) (BTK [5]; [12]): 19%; DC50 (BTK C481S): 8 nM
C=CC(=O)N1CCC[C@@H](n2nc(-c3ccc(Oc4ccccc4)cc3)c3c(N)ncnc32)C1 [Ibrutinib, reference compound]	0.84	0.85	0.34	0.92	0.89	0.74	0.74	0.22	0.22								8.52	16	5.98	46	pEC50 (Mino cells; Homo sapiens): 6.30; EMAX (% viable cells) (Mino cells): 79%; pEC50 (Rec-1 cells; Homo sapiens, Rec1, treatment time 72 h): 6.57; EMAX (% viable cells) (Rec-1 cells; treatment time 72 h): 68%
CN1CCN([C@@H]2CCCN(c3cnc(C(N)=O)c(Nc4ccc(N5CCN(CCCCc6cccc7c6CN(C6CCC(=O)NC6=O)C7=O)CC5)cc4)n3)C2)C1=O (some centres unmarked) [Compound 17]	1.59	3.14	2.92	1.06	1.05	1.34	1.23	1.11	1.12								9.22	7	8.43	15	Tumor Growth Inhibition (relative to vehicle) (TMD8 tumor cells; [14]): 14%; Tumor Growth Inhibition (relative to vehicle) (TMD8 tumor cells; [15]): 66%; Tumor Growth Inhibition (relative to vehicle) (TMD8 tumor cells; [16]): 81%; BTK Remaining (% relative to vehicle) (BTK [5]; [14]): 20%; BTK Remaining (% relative to vehicle) (BTK [5]; [15]): 15%; BTK Remaining (% relative to vehicle) (BTK [5]; [16]): 7%
CN1CCN([C@@H]2CCCN(c3cnc(C(N)=O)c(Nc4ccc(N5CCC6(CC5)CCN(c5ccc7c(c5)C(=O)N(C5CCC(=O)NC5=O)C7=O)CC6)cc4)n3)C2)C1=O (some centres unmarked) [Compound 55]										55	17	8.64	2.4	0.48	74.3	29	8.62	15	7.77	19	% BTK Remaining (BTK [3]; oral dose 0.3 mg/kg, 24 h, blood, flow cytometry): 83%; % BTK Remaining (BTK [3]; oral dose 0.3 mg/kg, 24 h, splenocytes, flow cytometry): 114%; % BTK Remaining (BTK [3]; oral dose 1 mg/kg, 6 h, splenocytes, HTRF, 1 mg/kg): 80% and 66%; % BTK Remaining (BTK [3]; oral dose 3 mg/kg, 6 h, splenocytes, HTRF): 18%; % BTK Remaining (BTK [3]; oral dose 3 mg/kg, 24 h, splenocytes, flow cytometry): 72%; % BTK Remaining (BTK [3]; oral dose 10 mg/kg, 24 h, blood, flow cytometry): 47%; % BTK Remaining (BTK [3]; oral dose 10 mg/kg, 24 h, splenocytes, flow cytometry): 45%; % BTK Remaining (BTK [3]; oral dose 30 mg/kg, 24 h, blood, flow cytometry): 39%; % BTK Remaining (BTK [3]; oral dose 30 mg/kg, 24 h, splenocytes, flow cytometry): 36%; % BTK Remaining (BTK [3]; oral dose 90 mg/kg, 24 h, blood, flow cytometry): 23%; % BTK Remaining (BTK [3]; oral dose 90 mg/kg, 24 h, splenocytes, flow cytometry): 48%; BTK Remaining (% relative to vehicle) (BTK [5]; [12]): 27%; DC50 (BTK C481S): 5.8 nM
CN1CCN([C@H]2CCCN(c3cnc(C(N)=O)c(Nc4cnn(C5CCN(CC6CCN(c7ccc8c(c7)C(=O)N(C7CCC(=O)NC7=O)C8=O)CC6)CC5)c4)n3)C2)C1=O (some centres unmarked) [Compound 83]										63	39	0.29	68.3	4	0.81	9	8.78	38	8.37	52	pEC50 ([6]; read-out: CD69 EC50): 10.10; pEC50 ([6]; read-out: CD86 EC50): 10.00; % BTK Remaining (BTK [3]; [10]): 48%; BTK Remaining (% relative to vehicle) (BTK [5]; [12]): 22%; DC50 (BTK C481S): 2.7 nM
